According to PMC12408683 (Archives of Toxicology, 2025):
Read-outs that look alike come from different tables or passages of the source.

What was measured:
HepG2 cells [1] = test: DNA adduct quantification by UHPLC-MS/MS in HepG2 cells; assay type: cell-based, human; details: for E3′-N^2-dG adducts / E3′-N^6-dA adducts: 24 h
Description: (§1) To this end, 6 × 10^6 cells were seeded per 10 cm dish and allowed to attach overnight. […] The pellets were washed with phosphate-buffered saline (PBS) and stored at – 20 °C until further use. DNA was isolated as described previously (Carlsson et al. [2022]) and DNA concentration as well as purity were determined with the NanoDrop ND1000 photometer (Thermo Scientific, Waltham MA, USA). As a next step, 30 µg DNA of each sample was digested overnight at 37 °C with micrococcal nuclease (Worthington, Lakewood NJ, USA) and phosphodiesterase II (Worthington, Lakewood NJ, USA) as reported (Carlsson et al. [2022]). Afterwards ^15N-E3′-N^2-dG (2 nM), ^15N-E3′-N^6-dA (0.5 nM) as well as ^15N-dG (20 µM) (Silantes, München, Germany) were added as internal standards. The isotope-labelled internal DNA adduct standards and external DNA adduct standard were synthesised as previously described (Schumacher et al. [2013]). Subsequently, the samples were incubated overnight at 37 °C with alkaline phosphatase (Sigma-Aldrich, St. Louis MO, USA), followed by precipitation of remaining proteins with ethanol and centrifugation at 20,800 g. The supernatant was narrowed down in a vacuum centrifuge (Eppendorf concentrator plus, Eppendorf, Hamburg, Germany) at 60 °C and 1400 g for 2–4 h and the resulting pellet was dissolved in 75% methanol. After another centrifugation step, the solution was transferred into glass vials with inserts.
(§2) The DNA adducts were measured via UHPLC–MS/MS with a multiple reaction method (MRM) using a UHPLC system (Agilent 1290 infinity; Agilent Technologies, Santa Clara CA, USA) consisting of a binary pump (G4220A), an autosampler (G4226A) and a column oven (G1316C). The eluent consisted of 0.1% acetic acid and UHPLC grade methanol. Injection volume was 5 μL and the flow rate was 0.2 mL/min. The gradients are shown in the supporting information, Fig. 2A, B. As a separation column, a Waters XTerraMS C18 2.5 µm (2.1 × 50 mm) was used at 35 °C. The UHPLC was coupled to the Sciex QTrap 5500 MS using a declustering potential of 91 V, an entrance potential of 10 V, a collision energy of 33 V, a collision cell entrance potential of 10 V, curtain gas of 25 psi, an ion spray voltage of 5500 V, a temperature of 550 °C, and an ion source gas of 35 psi as specific mass spectrometry parameters. Measurement was performed with an electron spray ionisation in positive mode using MRM to quantify both adducts. For further quantification of the adduct levels, a standard curve of both adducts was carried along ranging from 60 to 100,000 pM, also containing isotope-labelled standards for reference. Furthermore, the dG-content of each sample was determined via LC–MS/MS with stable isotope dilution analysis to normalise the adduct levels to the overall nucleoside content (Carlsson et al. [2022]; Stegmüller et al. [2018]). The limit of detection (LOD) and the limit of quantification (LOQ) for E3′-N^2-dG and E3′-N^6-dA are provided in supplementary Table S1. The specific compound parameters for both methods are provided in supplementary Table S2.
(§3) As benchmark response (BMR) for all concentration–response curves (adducts, micronuclei), a 2.0-fold increase vs. solvent control was used (BMC100, critical effect size = 1). The determined BMC100 and the corresponding upper and lower boundary (BMCU and BMCL, respectively) of the 90% confidence interval (CI) were used for potency comparison.

HepG2 cells [2] = details: for MN formation, increase (flow cytometry): 24 h + 72 h recovery
Description: DMSO served as solvent control, while MMC was used as a positive control. […] Following the recovery time, the cells were detached, harvested by centrifugation (300 g, 5 min), and washed with PBS. […] The fluorescent dye was then activated by photolysis (60 W lightbulb, 30 cm spacing) for 20 min before addition of 9 mL PBS to remove unbound dye. […] 1.5 × 10^4 cells were analysed using the BD FACSDiva software (BD Biosciences, Heidelberg, Germany).

[3] = system: primary rat hepatocytes (PRH); details: read-out: EC50 (cell viability); 24 h
Description: The cell viability was calculated relative to the negative control (set to 100%).

HepaRG cells [4] = system: HepaRG cells; set-up: method as in Le Hegarat et al. 2014; details: up to 2 mM ES for 24 h; ref Le Hegarat et al. 2014; cited from earlier work
female gpt delta mice = system: female gpt delta mice; set-up: method as in Suzuki et al. 2012b; details: ref Suzuki et al. 2012b; cited from earlier work
HepG2-CYP1A2 cells [5] = test: Western blot of γH2AX and p53 in HepG2-CYP1A2 cells; details: 24 h
Description: γH2AX and p53 levels were assessed by SDS-PAGE and western blotting as reported (Fahrer et al. [2013]). To this end, 5 × 10^5 cells were seeded in 3.5-cm dishes to adhere overnight. […] Proteins were separated by SDS-PAGE followed by the transfer onto a nitrocellulose membrane using the wet blot method. The successful transfer was confirmed by Ponceau S staining of the membrane before blocking with 5% non-fat dry milk in Tris-buffered saline with Tween-20 (MP-TBS-T). Subsequently, the membrane was incubated with the respective primary antibodies overnight at 4 °C. The membranes were washed three times for 5 min with TBS-T before incubating with the respective secondary antibody coupled with horseradish peroxidase. The detection was carried out using the Western Lightning Plus-ECL reagent (Perkin Elmer, Waltham MA, USA) with the c300 chemiluminescence imager (Azure Biosystems, Dublin CA, USA). The used primary and secondary antibodies are detailed in supplementary Table S3.

HepaRG cells [6] = system: HepaRG cells; set-up: method as in Le Hegarat et al. 2014; details: ref Le Hegarat et al. 2014; cited from earlier work
HepG2-CYP1A2 cells [7] = test: DNA adduct quantification by UHPLC-MS/MS in HepG2-CYP1A2 cells; assay type: cell-based, human
Description: as §1, §2, §3

rats = system: rats; set-up: method as in Nesslany et al. 2010; details: up to 2 g ES/kg bw by oral gavage; ref Nesslany et al. 2010; cited from earlier work
[8] = endpoint E3′-N^2-dG, BMR 2.0-fold increase, 90% CI
[9] = endpoint MN (FCM), BMR 2.0-fold increase, 90% CI
[10] = endpoint E3′-N^2-dG, BMR 2.0-fold increase, 90% CI, PROAST

In the case of `C=CC(O)c1ccc(OC)cc1` (centres unmarked) [1′OH-ES, 1′-hydroxyestragole], the “E3′-N^2-dG adducts” value (HepG2 cells [1]; 0.1 µM 1′OH-ES) is reported as 24 adducts/10^8 ncs, the “E3′-N^2-dG adducts” value (HepG2 cells [1]; 25 µM 1′OH-ES) is reported as 2237 adducts/10^8 ncs and the “E3′-N^6-dA adducts” value (HepG2 cells [1]; 25 µM 1′OH-ES) is reported as 64 adducts/10^8 ncs. The “E3′-N^2-dG adducts” value (HepG2 cells [1]; 35 µM 1′OH-ES) was 6881 adducts/10^8 ncs, the “E3′-N^6-dA adducts” value (HepG2 cells [1]; 35 µM 1′OH-ES) was 139 adducts/10^8 ncs and the “E3′-N^2-dG levels vs equimolar ES concentrations” value (HepG2 cells [1]; 1′OH-ES in HepG2 vs ES in HepG2-CYP1A2, 24 h) was 10–50 fold. For the same compound, the BMC100 (HepG2 cells [1]; endpoint E3′-N^2-dG, BMR 2.0-fold increase) was 2.65 µM, the BMCL (HepG2 cells [1]; [8]) was 0.75 µM and the BMCU (HepG2 cells [1]; [8]) was 5.65 µM. The “genotoxic and mutagenic potency compared to the parent compound ES” value (HepG2 cells [1]; from BMC modelling) was 20–30 fold, the “E3′-N^2-dG adduct level corresponding to significant cytotoxicity” value (HepG2 cells [1]; highest 1′OH-ES concentration) was 6881 adducts/10^8 ncs and the “E3′-N^2-dG adduct level at which a twofold MN increase was observed” value (HepG2 cells [1]; molecular dosimetry, flow cytometry and CBMN) was 420–2237 adducts/10^8 ncs. The “concentrations reaching the adduct level required to impair viability” value (HepG2 cells [1]; more than 6000 E3′-N^2-dG adducts/10^8 ncs) was no less than 35 µM, the “E3′-N^2-dG adducts required to impair viability and trigger cell death” value (HepG2 cells [1]; not reached by ES) was “more than 6000 adducts/10^8 ncs” and the “MN formation, increase (flow cytometry)” value (HepG2 cells [2]; 25 µM 1′OH-ES) was “twofold”. For the same compound, the “MN formation, increase (flow cytometry)” value (HepG2 cells [2]; 50 µM 1′OH-ES) was 4.6 fold, the “concentrations at which clastogenicity was observed” value (HepG2 cells [2]; CBMN and MN flow assay) was no less than 25 µM and the BMC100 (HepG2 cells [2]; endpoint MN (FCM), BMR 2.0-fold increase) was 29.8 µM. For the same compound, the BMCL (HepG2 cells [2]; [9]) was 21.1 µM, the BMCU (HepG2 cells [2]; [9]) was 37.6 µM and the EC50 [3] was 23 µM.
For `C=CCc1ccc(OC)cc1` [ES, estragole], the “DNA strand breaks (comet assay) outcome” value (HepaRG cells [4]) is listed as “negative outcome”, the “dose with significant increase in mutation frequency” value (female gpt delta mice) is listed as 75 mg/kg bw and the “γH2AX induction vs. control” value (HepG2-CYP1A2 cells [5]; 250 µM ES) is listed as “threefold”. For the same compound, the p53 accumulation (HepG2-CYP1A2 cells [5]) was “No p53 accumulation”, the “lowest effect concentration for MN formation” value (HepaRG cells [6]) was 1 mM and the “E3′-N^2-dG adducts, change vs maximum level” value (HepG2-CYP1A2 cells [7]; 2 mM ES (highest treatment group), 24 h) was “moderate decline”. The “E3′-N^6-dA adduct (minor DNA adduct)” value (HepG2-CYP1A2 cells [7]; any tested ES concentration (up to 2 mM), 24 h) was “neither quantifiable nor detectable”, the BMCL (HepG2-CYP1A2 cells [7]; [10]) was 18.9 µM and the BMCU (HepG2-CYP1A2 cells [7]; [10]) was 104 µM. For the same compound, the BMC100 (HepG2-CYP1A2 cells [7]; endpoint E3′-N^2-dG, BMR 2.0-fold increase, PROAST) was 63.3 µM and the “MN levels, study outcome” value (rats) was “negative”.
